Key:
Test in all cases: Kinase selectivity, DiscoverX scanMAX Kinase assay panel (% control)
Type in all cases: binding
[1] = biological target: T1, kinases of the scanMAX Kinase assay panel (Homo sapiens, UniProt P12931); settings: kinase SRC; 1 uM in DMSO
T1 construct: purchased DiscoverX Co. (contract measurement) scanMAX Kinase assay panel
Procedure, shortened: (§1)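 Compounds tested at 1 uM against the scanMAX kinase panel. Signal expressed as % control = (compound − positive control)/(DMSO negative control − positive control) × 100, where positive control = 0% and DMSO = 100%; below 35% counted as activity on that kinase.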

[2] = biological target: T2, kinases of the scanMAX Kinase assay panel (Homo sapiens, UniProt P21802); settings: FGFR2; 1 uM
T2 construct: purchased DiscoverX Co. (contract measurement) scanMAX Kinase assay panel
Procedure, shortened: as §1

[3] = biological target: T3, kinases of the scanMAX Kinase assay panel (Homo sapiens, UniProt P31751); settings: AKT2; 1 uM
T3 construct: purchased DiscoverX Co. (contract measurement) scanMAX Kinase assay panel
Procedure, shortened: as §1

[4] = biological target: T4, kinases of the scanMAX Kinase assay panel (Homo sapiens, UniProt Q15835); settings: GRK1; 1 uM
T4 construct: purchased DiscoverX Co. (contract measurement) scanMAX Kinase assay panel
T4 sequence (Q15835 1-563): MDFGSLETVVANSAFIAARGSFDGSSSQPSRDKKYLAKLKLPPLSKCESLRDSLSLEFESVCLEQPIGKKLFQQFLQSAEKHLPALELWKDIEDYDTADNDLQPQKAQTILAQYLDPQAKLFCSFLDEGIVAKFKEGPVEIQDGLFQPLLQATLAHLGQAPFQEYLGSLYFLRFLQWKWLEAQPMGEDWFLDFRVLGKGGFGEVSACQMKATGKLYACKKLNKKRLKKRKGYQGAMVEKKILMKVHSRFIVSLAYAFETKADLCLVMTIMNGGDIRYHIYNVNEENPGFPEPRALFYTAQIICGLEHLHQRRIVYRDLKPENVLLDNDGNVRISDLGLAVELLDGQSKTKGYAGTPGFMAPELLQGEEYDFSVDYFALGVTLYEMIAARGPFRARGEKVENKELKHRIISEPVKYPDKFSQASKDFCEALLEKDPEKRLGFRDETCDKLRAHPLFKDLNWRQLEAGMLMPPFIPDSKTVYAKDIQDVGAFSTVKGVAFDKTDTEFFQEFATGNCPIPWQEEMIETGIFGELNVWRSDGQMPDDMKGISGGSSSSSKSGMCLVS
Procedure, shortened: as §1

[5] = biological target: T5, kinases of the scanMAX Kinase assay panel (Homo sapiens, UniProt Q99683); settings: ASK1; 1 uM
T5 construct: purchased DiscoverX Co. (contract measurement) scanMAX Kinase assay panel
T5 sequence (Q99683 1-1374): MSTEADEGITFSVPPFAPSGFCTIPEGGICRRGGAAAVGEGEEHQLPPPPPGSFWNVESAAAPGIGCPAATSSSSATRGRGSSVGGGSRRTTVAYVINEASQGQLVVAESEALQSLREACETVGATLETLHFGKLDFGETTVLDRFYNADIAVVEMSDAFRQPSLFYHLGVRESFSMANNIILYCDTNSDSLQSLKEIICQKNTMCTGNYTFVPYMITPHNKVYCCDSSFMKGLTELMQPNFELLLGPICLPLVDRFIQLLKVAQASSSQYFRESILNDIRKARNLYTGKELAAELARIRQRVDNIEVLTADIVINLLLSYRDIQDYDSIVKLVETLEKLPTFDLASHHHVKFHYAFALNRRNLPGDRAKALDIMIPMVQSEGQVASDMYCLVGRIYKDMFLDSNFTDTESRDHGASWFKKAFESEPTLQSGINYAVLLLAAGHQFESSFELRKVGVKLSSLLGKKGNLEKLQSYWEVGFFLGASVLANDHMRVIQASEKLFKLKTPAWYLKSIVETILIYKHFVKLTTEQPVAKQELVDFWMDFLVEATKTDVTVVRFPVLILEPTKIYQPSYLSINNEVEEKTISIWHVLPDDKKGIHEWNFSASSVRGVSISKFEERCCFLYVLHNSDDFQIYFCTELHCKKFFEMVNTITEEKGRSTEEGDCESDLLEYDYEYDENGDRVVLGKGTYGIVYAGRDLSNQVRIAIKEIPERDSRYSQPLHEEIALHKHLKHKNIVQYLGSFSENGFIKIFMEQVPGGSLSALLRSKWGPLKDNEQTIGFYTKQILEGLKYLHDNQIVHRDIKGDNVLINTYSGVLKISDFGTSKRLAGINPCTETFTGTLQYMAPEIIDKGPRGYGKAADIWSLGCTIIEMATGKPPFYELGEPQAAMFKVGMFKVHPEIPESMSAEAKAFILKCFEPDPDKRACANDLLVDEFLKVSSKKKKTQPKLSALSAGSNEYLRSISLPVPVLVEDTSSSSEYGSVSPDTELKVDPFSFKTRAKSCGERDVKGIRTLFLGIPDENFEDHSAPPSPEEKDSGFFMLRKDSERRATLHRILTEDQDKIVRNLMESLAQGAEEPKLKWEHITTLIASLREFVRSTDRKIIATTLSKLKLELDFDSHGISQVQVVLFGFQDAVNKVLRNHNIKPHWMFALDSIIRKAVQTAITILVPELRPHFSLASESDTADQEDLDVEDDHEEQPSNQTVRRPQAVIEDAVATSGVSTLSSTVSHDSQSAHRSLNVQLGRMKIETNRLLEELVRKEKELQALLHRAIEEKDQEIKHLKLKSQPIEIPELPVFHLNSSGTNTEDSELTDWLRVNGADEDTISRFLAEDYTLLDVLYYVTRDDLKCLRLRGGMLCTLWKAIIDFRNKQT
Procedure, shortened: as §1

T3 sequence (P31751 whole entry): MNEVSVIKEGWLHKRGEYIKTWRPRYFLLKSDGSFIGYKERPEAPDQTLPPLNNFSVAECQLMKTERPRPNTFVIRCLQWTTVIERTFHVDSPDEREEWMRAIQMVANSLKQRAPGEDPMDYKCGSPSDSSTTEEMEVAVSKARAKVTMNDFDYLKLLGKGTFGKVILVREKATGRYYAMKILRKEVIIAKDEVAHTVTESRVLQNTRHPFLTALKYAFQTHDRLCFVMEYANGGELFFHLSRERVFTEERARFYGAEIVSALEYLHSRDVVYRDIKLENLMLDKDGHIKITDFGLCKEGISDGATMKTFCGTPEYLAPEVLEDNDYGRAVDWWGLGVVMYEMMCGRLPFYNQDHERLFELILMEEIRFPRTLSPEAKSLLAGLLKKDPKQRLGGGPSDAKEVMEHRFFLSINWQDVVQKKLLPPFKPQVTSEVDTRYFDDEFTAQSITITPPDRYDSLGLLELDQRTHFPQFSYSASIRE
T2 sequence (P21802 22-821): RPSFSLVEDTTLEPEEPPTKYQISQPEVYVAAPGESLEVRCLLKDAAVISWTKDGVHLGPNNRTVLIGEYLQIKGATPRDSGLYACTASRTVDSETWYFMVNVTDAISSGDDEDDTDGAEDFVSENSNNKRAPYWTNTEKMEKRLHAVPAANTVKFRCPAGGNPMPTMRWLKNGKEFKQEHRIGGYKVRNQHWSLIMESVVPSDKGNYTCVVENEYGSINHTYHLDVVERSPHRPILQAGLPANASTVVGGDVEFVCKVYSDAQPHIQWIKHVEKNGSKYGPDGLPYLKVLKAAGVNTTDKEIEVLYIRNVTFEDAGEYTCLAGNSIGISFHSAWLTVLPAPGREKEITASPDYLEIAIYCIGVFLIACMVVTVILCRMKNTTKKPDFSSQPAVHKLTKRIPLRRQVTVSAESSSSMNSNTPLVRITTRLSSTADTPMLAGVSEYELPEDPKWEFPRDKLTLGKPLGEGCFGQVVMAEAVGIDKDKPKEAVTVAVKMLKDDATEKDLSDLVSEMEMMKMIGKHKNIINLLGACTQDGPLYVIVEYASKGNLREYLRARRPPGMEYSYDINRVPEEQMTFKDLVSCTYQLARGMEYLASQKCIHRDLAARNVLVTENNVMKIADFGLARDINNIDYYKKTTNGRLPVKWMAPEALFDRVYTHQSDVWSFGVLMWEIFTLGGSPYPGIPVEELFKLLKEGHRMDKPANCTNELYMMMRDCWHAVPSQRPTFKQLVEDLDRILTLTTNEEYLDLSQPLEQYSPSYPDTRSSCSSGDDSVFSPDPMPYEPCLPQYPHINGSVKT
T1 sequence (P12931 whole entry): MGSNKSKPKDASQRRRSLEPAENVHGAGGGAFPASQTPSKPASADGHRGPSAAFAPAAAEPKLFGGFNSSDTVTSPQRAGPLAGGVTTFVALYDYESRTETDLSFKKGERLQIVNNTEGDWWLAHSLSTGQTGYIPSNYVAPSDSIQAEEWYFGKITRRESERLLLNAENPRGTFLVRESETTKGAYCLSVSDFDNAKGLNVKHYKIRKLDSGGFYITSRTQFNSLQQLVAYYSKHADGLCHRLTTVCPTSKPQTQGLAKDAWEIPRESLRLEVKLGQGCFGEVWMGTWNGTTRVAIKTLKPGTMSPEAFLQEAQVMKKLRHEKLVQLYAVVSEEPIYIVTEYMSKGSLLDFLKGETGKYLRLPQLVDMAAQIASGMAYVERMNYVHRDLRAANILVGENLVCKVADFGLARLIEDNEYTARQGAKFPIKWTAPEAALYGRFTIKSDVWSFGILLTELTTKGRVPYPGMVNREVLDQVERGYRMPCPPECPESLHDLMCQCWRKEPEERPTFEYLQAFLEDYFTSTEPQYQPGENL

| Compound | remaining binding at 1 µM [1] | remaining binding at 1 µM [2] | remaining binding at 1 µM [3] | remaining binding at 1 µM [4] | remaining binding at 1 µM [5] |
| --- | --- | --- | --- | --- | --- |
| CC1(Nc2nc(Nc3cnn([C@H]4CCN(C5COC5)C[C@@H]4F)c3Cl)nc3[nH]cc(C#N)c23)CC1 [Example 52, 2-((5-chloro-1-((3S,4S)-3-fluoro-1-(oxetane-3-yl)piperidine-4-yl)-1H-pyrazole-4-yl)amino)((1-methylcyclopropyl)amino)-7H-pyrrolo[2,3-d]pyrimidine-5-carbonitrile] | 4.6% | 26% | 100% | 36% | 1.8% |
| CNc1nc(Nc2ccc(C(=O)N3CCOCC3)cc2OC)nc2[nH]cc(C#N)c12 [Example 1, 2-((2-methoxy-4-(morpholine-4-carbonyl)phenyl)amino)-4-(methylamino)-7H-pyrrolo[2,3-d]pyrimidine-5-carbonitrile] | 90% | 95% | 86% | 72% | 57% |
| CCNc1nc(Nc2ccc(C(=O)N3CCC(N4CCOCC4)CC3)cc2OC)nc2[nH]cc(C(F)(F)F)c12 [Example 104, (4-((4-(ethylamino)-5-(trifluoromethyl)-7H-pyrrolo[2,3-d]pyrimidine-2-yl)amino)-3-methoxyphenyl)(4-morpholinopiperidine-1-yl)methanone] | 100% | 96% | 94% | 67% | 82% |

— patent publication US11208412B2 (DAEGU-GYEONGBUK MEDICAL INNOVATION FOUNDATION, priority 2017, dated 2021)
